Laboratory results: PMC9518283 (Journal of Enzyme Inhibition and Medicinal Chemistry, 2022)
“And” between values parts separate entries of the source, which are not always exact repeats. Equal entries are not always repeated.

Legend:
[1] = in vitro; conditions: PAMPA, pH 7.4
Experimental: (§4) The PAMPA was used as the non-cell-based in vitro assay to predict BBB penetration carried out in a coated 96-well membrane filter[44]^,[52]. […] Tested compounds were dissolved first in DMSO and then diluted with PBS (pH 7.4) to achieve the final concentration of 100 µM in the donor well. […] An aliquot of 300 µL of the donor solution (VD) was added to the donor wells and the donor filter plate was carefully put on the acceptor plate so that coated membrane was "in touch" with both donor solution and acceptor buffer. […] The concentration of the tested compound in both the donor and acceptor wells was assessed after 3, 4, 5, and 6 h of incubation, respectively, in quadruplicate using a multi-plate reader Spark (Tecan GmbH, Grödig, Austria) at the maximum absorption wavelength of each compound. Also prepared were solutions at the theoretical equilibrium of the given compound (i.e. the theoretical concentration if the donor and acceptor compartment were simply combined).

[2] = biological target: T1, hMAO-B (Homo sapiens, UniProt P27338); experiment: biochemical; conditions: for % of MAO-B activity (1 µM) / % of MAO-B activity (10 µM): residual enzyme activity; for % of MAO-B activity (1 µM): compound at 1 µM; for % of MAO-B activity (10 µM): compound at 10 µM; for IC50: IC50 hMAO-B ± STD, mean of at least three experiments
T1 construct: purchased Sigma-Aldrich (St. Louis, MO, USA)
T1 sequence (P27338 1-520): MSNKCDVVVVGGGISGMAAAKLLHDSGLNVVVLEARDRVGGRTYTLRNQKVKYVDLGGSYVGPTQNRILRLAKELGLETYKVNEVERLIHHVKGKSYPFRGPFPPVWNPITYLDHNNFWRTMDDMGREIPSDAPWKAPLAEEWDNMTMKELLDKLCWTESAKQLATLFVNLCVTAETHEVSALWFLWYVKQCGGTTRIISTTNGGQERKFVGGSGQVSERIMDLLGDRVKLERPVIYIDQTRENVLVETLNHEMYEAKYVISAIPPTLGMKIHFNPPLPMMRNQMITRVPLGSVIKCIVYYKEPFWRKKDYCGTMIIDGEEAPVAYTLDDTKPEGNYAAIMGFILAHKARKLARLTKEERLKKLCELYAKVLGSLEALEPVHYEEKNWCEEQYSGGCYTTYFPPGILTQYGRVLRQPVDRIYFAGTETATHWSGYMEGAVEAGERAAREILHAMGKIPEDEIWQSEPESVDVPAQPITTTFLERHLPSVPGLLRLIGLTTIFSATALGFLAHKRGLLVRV
Experimental: (§1) The hMAO-A and hMAO-B enzymes were purchased from Sigma-Aldrich (St. Louis, MO, USA). […] The mixture was pre-incubated at 37 °C for 5 min and subsequently substrate kynuramine was added to the final concentration of 60 µM in the case of hMAO-A and 30 µM in the case of hMAO-B. The final volume of reaction mixture was 0.1 mL. The whole reaction mixture was incubated at 37 °C for 30 min. The reaction was stopped by the addition of 200 µL acetonitrile/methanol mixture (ratio 1:1) and cooling down to 0 °C. […] Eluents: (A) 0.1% formic acid in water; (B) 0.1% formic acid in acetonitrile.

[3] = test system: human neuroblastoma cell line (SH-SY5Y); experiment: MTT cytotoxicity on SH-SY5Y; conditions: 24 h, read-out: IC50 ± SEM SH-SY5Y
Experimental: (§5) Briefly, HepG2 and SH-SY5Y cells were seeded into 96-well plates in 100 µL and density of 15 × 10^3 and 20 × 10^3 cells per well, respectively. Cells were allowed to attach overnight. The stock solutions of tested compounds were prepared in DMSO (Sigma-Aldrich), further serially diluted in cultivation medium and added to the cells in 96-well culture plate. […] After 24 h was the medium aspirated and 100 µL MTT solution (0.5 mg/mL) in serum free DMEM medium was added to each well. The cells were then incubated for one hour. The medium was then aspirated and purple crystals of MTT formazan were dissolved in 100 µL DMSO under shaking. The absorbance was measured with a multimode microplate reader Spark® (Tecan Trading AG, Männedorf, Switzerland) at test wavelength of 570 nm.
(§6) The data were obtained from three independent experiments performed in triplicates. The IC50 values were expressed as a mean ± standard error of the mean (SEM).

[4] = biological target: T2, hMAO-A (Homo sapiens, UniProt P21397); experiment: hMAO-A inhibition, kynuramine substrate, HPLC-MS; type: biochemical; conditions: residual enzyme activity; for % of MAO-A activity (1 µM): compound at 1 µM; for % of MAO-A activity (10 µM): compound at 10 µM
T2 construct: purchased Sigma-Aldrich (St. Louis, MO, USA)
T2 sequence (P21397 1-527): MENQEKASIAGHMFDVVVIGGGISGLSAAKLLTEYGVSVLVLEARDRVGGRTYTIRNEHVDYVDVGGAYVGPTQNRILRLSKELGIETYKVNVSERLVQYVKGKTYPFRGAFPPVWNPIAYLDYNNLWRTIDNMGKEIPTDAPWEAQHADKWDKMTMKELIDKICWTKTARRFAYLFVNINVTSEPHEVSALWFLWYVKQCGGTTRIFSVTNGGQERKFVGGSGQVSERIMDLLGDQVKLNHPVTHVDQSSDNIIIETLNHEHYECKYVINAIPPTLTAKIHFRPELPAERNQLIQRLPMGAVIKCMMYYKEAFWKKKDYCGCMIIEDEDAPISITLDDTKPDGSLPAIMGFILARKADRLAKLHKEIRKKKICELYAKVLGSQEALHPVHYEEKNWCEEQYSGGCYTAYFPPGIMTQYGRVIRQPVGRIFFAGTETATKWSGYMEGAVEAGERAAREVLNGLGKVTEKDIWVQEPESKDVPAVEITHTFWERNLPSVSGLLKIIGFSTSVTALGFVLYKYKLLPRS
Experimental: as §1

[5] = class from PAMPA Pe
Experimental: as §4

[6] = test system: human hepatocellular carcinoma cell line (HepG2); experiment: MTT cytotoxicity on HepG2; conditions: HepG2, 24 h, read-out: IC50 ± SEM HepG2
Experimental: as §5, §6

[7] = biological target: human AChE (hAChE; EC 3.1.1.7) (Homo sapiens, UniProt P22303); experiment: biochemical; conditions: for IC50: mean of at least three experiments, read-out: IC50 hAChE ± STD; for SI (hBChE/hAChE): ratio IC50(hBChE)/IC50(hAChE)
Experimental: (§2) For that purpose, Ellman’s colorimetric assay was used[35].
(§3) The catalytic activity of both cholinesterases was determined by standard Ellman’s method adapted for 96-well plates. All tested inhibitors were freshly prepared in 50% DMSO/50% methanol at 10 mM concentration as stock solutions and then diluted in 0.1 M phosphate buffer, pH 7.4. […] The mixture was pre-incubated at 37 °C for 15 min and subsequently substrate (acetylthiocholine iodide or butyrylthiocholine iodide) was added to the final concentration of 1000 μM. The final volume of the reaction was 100 μL. The catalytic activity was evaluated as the amount of product (%) formed by enzyme after 10 min of incubation at 37 °C. The IC50 values from three independent experiments for each inhibitor concentration in triplicate were calculated using non-linear regression curve analysis in Prism version 7 Software (GraphPad Software Inc., San Diego, CA).

[8] = biological target: human butyrylcholinesterase (hBChE; EC 3.1.1.8) (Homo sapiens, UniProt P06276); experiment: biochemical; conditions: mean of at least three experiments; read-out: IC50 hBChE ± STD
Experimental: as §2, §3

[9] = test system: SH-SY5Y cells; parameters: method as in PMID 25792506; conditions: 10, 50 and 100 µM, MTT; cited from earlier work
[10] = test system: human hepatic stellate cells; parameters: method as in PMID 25792506; conditions: cited from earlier work

Sequence of human AChE (hAChE; EC 3.1.1.7) (P22303 32-614): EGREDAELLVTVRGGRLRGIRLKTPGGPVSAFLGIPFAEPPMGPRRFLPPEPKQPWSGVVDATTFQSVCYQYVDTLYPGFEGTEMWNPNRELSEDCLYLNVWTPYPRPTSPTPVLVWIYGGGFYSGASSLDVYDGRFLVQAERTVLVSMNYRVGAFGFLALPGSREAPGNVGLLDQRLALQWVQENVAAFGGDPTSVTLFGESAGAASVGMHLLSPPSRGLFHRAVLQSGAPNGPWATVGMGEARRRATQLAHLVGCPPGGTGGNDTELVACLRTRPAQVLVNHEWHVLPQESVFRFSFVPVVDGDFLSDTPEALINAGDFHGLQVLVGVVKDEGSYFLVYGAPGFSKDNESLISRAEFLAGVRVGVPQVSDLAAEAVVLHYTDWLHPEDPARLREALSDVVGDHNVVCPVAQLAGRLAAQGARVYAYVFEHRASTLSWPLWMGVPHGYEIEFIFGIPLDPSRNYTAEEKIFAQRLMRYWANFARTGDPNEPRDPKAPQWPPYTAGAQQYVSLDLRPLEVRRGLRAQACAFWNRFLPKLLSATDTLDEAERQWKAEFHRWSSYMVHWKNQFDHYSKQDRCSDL
Sequence of human butyrylcholinesterase (hBChE; EC 3.1.1.8) (P06276 29-602): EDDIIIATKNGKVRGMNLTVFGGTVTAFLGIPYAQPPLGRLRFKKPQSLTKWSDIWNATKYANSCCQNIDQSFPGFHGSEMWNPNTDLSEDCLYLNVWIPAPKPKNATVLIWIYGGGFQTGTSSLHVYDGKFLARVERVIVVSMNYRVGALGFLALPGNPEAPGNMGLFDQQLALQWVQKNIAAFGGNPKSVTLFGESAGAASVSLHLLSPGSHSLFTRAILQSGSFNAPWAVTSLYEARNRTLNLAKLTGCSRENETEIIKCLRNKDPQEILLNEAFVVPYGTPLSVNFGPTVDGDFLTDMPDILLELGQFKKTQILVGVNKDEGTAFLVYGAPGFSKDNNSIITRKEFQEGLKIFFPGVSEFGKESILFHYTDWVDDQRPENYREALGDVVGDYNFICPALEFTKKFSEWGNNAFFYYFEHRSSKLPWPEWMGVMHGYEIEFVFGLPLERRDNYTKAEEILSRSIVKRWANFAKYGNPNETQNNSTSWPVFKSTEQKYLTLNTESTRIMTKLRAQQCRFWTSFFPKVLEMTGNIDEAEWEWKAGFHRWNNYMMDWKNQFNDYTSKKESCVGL

SMILES | Papp at 100 µM [1] [×10⁻⁶ cm/s] | % of MAO-B activity (1 µM) [2] [%] | % of MAO-B activity (10 µM) [2] [%] | IC50 [3] [nM] | % of MAO-A activity (1 µM) [4] [%] | % of MAO-A activity (10 µM) [4] [%] | CNS predicted availability [5] | IC50 [6] [nM] | IC50 [2] | IC50 [7] [nM] | SI (hBChE/hAChE) [7] | IC50 [8] [nM] | Papp [1] [×10⁻⁶ cm/s] | effect on the viability of SH-SY5Y cells [9] | hepatotoxicity ([10]; 100 µM) | cell survival rate ([10]; 200 µM) [%]
Nc1c2c(nc3cc(Cl)ccc13)CCCC2 [6-Chlorotacrine, 6-chlorotacrine, reference compound] | 11 ± 0.5 | 80 | 84 | 50400 ± 1280 | 61 | 48 | CNS+ (CNS + (high BBB permeation predicted): Pe (×10^−6 cm s^−1) > 4.0) | 43200 ± 1170 |  |  |  |  |  |  |  | 
C=CCNc1c2c(nc3ccc(Oc4ccccc4)cc13)CCCC2.Cl [Compound 7, 7-Phenoxy-N-(prop-2-en-1-yl)-1,2,3,4-tetrahydroacridin-9-amine hydrochloride] | 4.22 ± 0.17 | 5 | 2 | 12400 ± 440 | 99 | 90 |  | 10300 ± 830 | 163 nM | 1120 ± 21 | 2.47 | 2770 ± 133 |  |  |  | 
COc1ccc2nc3c(c(N)c2c1)CCCC3 [Compound 7-MEOTA, 7-methoxytacrine, reference compound] |  | 78 | 76 | 53260 ± 380 | 41 | 42 | CNS+ (CNS + (high BBB permeation predicted): Pe (×10^−6 cm s^−1) > 4.0) | 44400 ± 3350 |  |  |  |  | 17 ± 3.6 |  |  | 
C#CCNc1c2c(nc3ccccc13)CCCC2 [Compound 9] |  | 83 | 61 |  | 94 | 56 |  |  |  | 94 ± 0.8 | 1.72 | 162 ± 8 |  | nearly no effect on the viability | nearly no hepatotoxicity | 91.38
C#CCNc1c2c(nc3ccc(Oc4ccccc4)cc13)CCCC2.Cl [Compound 15, 7-Phenoxy-N-(prop-2-yn-1-yl)-1,2,3,4-tetrahydroacridin-9-amine hydrochloride] | 10.4 ± 0.94 | 8 | 3 | 23400 ± 2550 | 41 | 51 |  | 16900 ± 770 | 40 nM and 40.4 nM | 1470 ± 24 | 0.45 | 659 ± 77 |  |  |  | 
C#CCN(CC#C)CCCNc1c2c(nc3ccccc13)CCCC2.Cl.Cl [Compound 20, N,N-Di(prop-2-yn-1-yl)-N'-(1,2,3,4-tetrahydroacridin-9-yl)propane-1,3-diamine dihydrochloride] | 12.2 ± 1.12 | 148 | 96 | 31400 ± 1550 | 78 | 33 |  | 38300 ± 1750 |  | 198 ± 24 | 0.39 | 78 ± 3 |  |  |  | 
C#CCNCCCNc1c2c(nc3ccccc13)CCCC2.Cl.Cl [Compound 21, N-(Prop-2-yn-1-yl)-N'-(1,2,3,4-tetrahydroacridin-9-yl)propane-1,3-diamine dihydrochloride] | 6.07 ± 0.53 | 88 | 90 | 38800 ± 750 | 47 | 54 |  | 25900 ± 730 |  | 95 ± 1 | 0.98 | 93 ± 3 |  |  |  | 
